The values that follow come from US11000033B2, “Ketone or oxime compound, and herbicide” (NISSAN CHEMICAL CORPORATION, priority 2014, dated 2021).

Assay type in all cases: in vivo
In series [1] the test system is Echinochloa oryzacola Vasing. Nature of the series: Test Example 2: herbicidal activity, application during weed generation in submerged conditions (symbol A). The conditions noted are these: Table 23; application herbicide amount 320 g/ha; grade 0-5 by criteria of Test Example 1. The gist of the method: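 Each pot contained alluvial soil under 4 cm of water with seeds of all three weeds sown together. Following growth at 25° C. to 30° C. to the one- to two-leaf stage, the floodwater received diluted emulsion at a predetermined amount; visual assessment followed at 3 weeks.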

Series [2] has as its system Echinochloa oryzacola Vasing. Nature of the series: Test Example 1: herbicidal activity, application before weed generation in submerged conditions (symbol A). Conditions: application herbicide amount 320 g/ha. The gist of the method:
(§1)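 Pre-emergence, paddy conditions: emulsifiable formulation diluted in water, dosed onto floodwater (4 cm depth) on sowing day. Alluvial soil; weeds sown mixed; rice transplanted at 2.5-leaf stage. Greenhouse 25–30 °C, 3 wk. Score 0–5 (5 = ≥90% kill, 0 = ≤5%).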

Series [3] relates to Veronica persica. Nature of the series: Test Example 4: herbicidal effect by soil treatment (symbol R). Conditions: application herbicide amount 320 g/ha. Summed up: (§2)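 Seeds were sown in sterilized diluvial soil, covered with about 1.5 cm of soil, and the soil surface was sprayed with a water-diluted emulsion of the compound at a predetermined rate. Plants grew in a greenhouse at 25° C. to 30° C.; effects were scored visually 3 weeks after application.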

For another series, the system named is Lolium multiflorum Lam. Briefly: Test Example 5: herbicidal effect by foliage application, plastic box (symbol K). Conditions: 320 g/ha, 3 weeks after application. Summed up:
(§3)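 Herbicide, formulated as an emulsion and diluted in water, is sprayed onto the aerial parts of 14-day seedlings. These were grown at 25° C. to 30° C. in sterilized diluvial soil; effects are graded after 3 weeks.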

A further series has as its system Monochoria vaginalis. Briefly: Test Example 1: herbicidal activity, application before weed generation in submerged conditions (symbol C). Conditions: application herbicide amount 320 g/ha. Summed up: as §1
For the next series, the system named is Digitaria ciliaris. Nature of the series: Test Example 4: herbicidal effect by soil treatment (symbol F). Conditions: application herbicide amount 320 g/ha. The gist of the method:
as §2

Series [4] has as its system Veronica persica. Nature of the series: Test Example 5: herbicidal effect by foliage application, plastic box (symbol R). The conditions noted are these: 320 g/ha, 3 weeks after application. The gist of the method: as §3
Another series concerns rapeseed. Nature of the series: Test Example 5: effect on crop by foliage application, plastic box (symbol g). The conditions noted are these: 320 g/ha, 3 weeks after application. The gist of the method:
(§4)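 A greenhouse held between 25° C. and 30° C. was used to grow plants sown spot-wise, beneath ~1.5 cm of soil, in boxes of sterilized diluvial soil.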

Another series deals with Avena fatua. Nature of the series: Test Example 5: herbicidal effect by foliage application, plastic box (symbol I). Conditions: 320 g/ha, 3 weeks after application. The gist of the method: as §3
The next series deals with beet. Briefly: Test Example 5: effect on crop by foliage application, plastic box (symbol f). Conditions: 320 g/ha, 3 weeks after application. The gist of the method: as §4
The subject of a further series is corn. Nature of the series: Test Example 5: effect on crop by foliage application, plastic box (symbol c). Conditions: 320 g/ha, 3 weeks after application. The gist of the method:
as §4

Take `CON=C(C)CC1CC(O)=C(c2c(C)cc(-c3ncccn3)cc2C)C1=O` (mixture of isomers) [6-057]: the “Herbicidal effect grade, A: Echinochloa oryzacola Vasing.” value in series [1] was 3 (Herbicidal ratio of 40% or higher and lower than 70%); in [2] it was 3 (Herbicidal ratio of 40% or higher and lower than 70%). For the same compound, the “R: Veronica persica, herbicidal effect grade” value in the series on Veronica persica [3] is given as 0 (Herbicidal ratio of 5% or lower (almost no effect)). Also, the “K: Lolium multiflorum Lam., herbicidal effect (criteria of Test Example 1)” value with Lolium multiflorum Lam. was 5 (Herbicidal ratio of 90% or more (almost completely withered)). For the same compound, in the series on Monochoria vaginalis, the “Herbicidal effect grade, C: Monochoria vaginalis” value (from here on “Herbicidal effect grade, C”) was 1 (Herbicidal ratio of 5% or higher and lower than 20%). In addition, the “F: Digitaria ciliaris, herbicidal effect grade” value (from here on “F: Digitaria ciliaris”) in the series on Digitaria ciliaris is recorded as 5 (Herbicidal ratio of 90% or more (almost completely withered)). In the series with Veronica persica [4], the “R: Veronica persica, herbicidal effect (criteria of Test Example 1)” value is 4 (Herbicidal ratio of 70% or higher and lower than 90%). The “g: rapeseed, effect on crop (criteria of Test Example 1)” value (from here on “g: rapeseed, effect on crop”) in the series with rapeseed was 5 (Herbicidal ratio of 90% or more (almost completely withered)). Moreover, the “I: Avena fatua, herbicidal effect (criteria of Test Example 1)” value (“I: Avena fatua, herbicidal effect” below) with Avena fatua is on record as 5 (Herbicidal ratio of 90% or more (almost completely withered)). For the same compound, in the series with beet, the “f: beet, effect on crop (criteria of Test Example 1)” value (“f: beet, effect on crop” for short) was 0 (Herbicidal ratio of 5% or lower (almost no effect)). The “c: corn, effect on crop (criteria of Test Example 1)” value (“c: corn, effect on crop” below) in the series with corn was 5 (Herbicidal ratio of 90% or more (almost completely withered)).

In the case of `CON=C(C)CC1CC(O)=C(c2c(C)cc(-c3ccc(F)cc3)cc2C)C1=O` (mixture of isomers) [6-058], the “Herbicidal effect grade, A: Echinochloa oryzacola Vasing.” value in [1] and in series [2] was 5 (Herbicidal ratio of 90% or more (almost completely withered)) in each case. The “R: Veronica persica, herbicidal effect grade” value in the series with Veronica persica [3] is given as 5 (Herbicidal ratio of 90% or more (almost completely withered)). Besides, the “K: Lolium multiflorum Lam., herbicidal effect (criteria of Test Example 1)” value in the series with Lolium multiflorum Lam. is 5 (Herbicidal ratio of 90% or more (almost completely withered)). The “Herbicidal effect grade, C” value in the series with Monochoria vaginalis was 5 (Herbicidal ratio of 90% or more (almost completely withered)). Besides, the “F: Digitaria ciliaris” value in the series on Digitaria ciliaris is 5 (Herbicidal ratio of 90% or more (almost completely withered)). Also, the “R: Veronica persica, herbicidal effect (criteria of Test Example 1)” value in the series on Veronica persica [4] is reported as 5 (Herbicidal ratio of 90% or more (almost completely withered)). The “g: rapeseed, effect on crop” value in the series on rapeseed is 5 (Herbicidal ratio of 90% or more (almost completely withered)). In the series with Avena fatua, the “I: Avena fatua, herbicidal effect” value is listed as 5 (Herbicidal ratio of 90% or more (almost completely withered)). The “f: beet, effect on crop” value in the series on beet is listed as 5 (Herbicidal ratio of 90% or more (almost completely withered)). In addition, the “c: corn, effect on crop” value in the series with corn was 5 (Herbicidal ratio of 90% or more (almost completely withered)).

Take `CON=C(C)CC1CC(OC(=O)N2CCOCC2)=C(c2c(C)cc(-c3ccc(F)cc3)cc2C)C1=O` (mixture of isomers) [6-059]: the “Herbicidal effect grade, A: Echinochloa oryzacola Vasing.” value in series [1] and in series [2] was 5 (Herbicidal ratio of 90% or more (almost completely withered)) throughout. In addition, the “R: Veronica persica, herbicidal effect grade” value in the series on Veronica persica [3] is 3 (Herbicidal ratio of 40% or higher and lower than 70%). The “K: Lolium multiflorum Lam., herbicidal effect (criteria of Test Example 1)” value in the series with Lolium multiflorum Lam. is 5 (Herbicidal ratio of 90% or more (almost completely withered)). Also, the “Herbicidal effect grade, C” value in the series with Monochoria vaginalis was 4 (Herbicidal ratio of 70% or higher and lower than 90%). Besides, the “F: Digitaria ciliaris” value in the series on Digitaria ciliaris is given as 5 (Herbicidal ratio of 90% or more (almost completely withered)). In addition, the “R: Veronica persica, herbicidal effect (criteria of Test Example 1)” value with Veronica persica [4] was 5 (Herbicidal ratio of 90% or more (almost completely withered)). In addition, the “g: rapeseed, effect on crop” value in the series on rapeseed is on record as 5 (Herbicidal ratio of 90% or more (almost completely withered)). The “I: Avena fatua, herbicidal effect” value in the series on Avena fatua was 5 (Herbicidal ratio of 90% or more (almost completely withered)). The “f: beet, effect on crop” value in the series with beet is on record as 0 (Herbicidal ratio of 5% or lower (almost no effect)). In the series with corn, the “c: corn, effect on crop” value is 5 (Herbicidal ratio of 90% or more (almost completely withered)).

Take `CON=C(C)CC1CC(OS(=O)(=O)N(C)C)=C(c2c(C)cc(-c3ccc(F)cc3)cc2C)C1=O` (mixture of isomers) [6-060]: the “Herbicidal effect grade, A: Echinochloa oryzacola Vasing.” value in series [1] and in [2] was 5 (Herbicidal ratio of 90% or more (almost completely withered)) in each case. Further, in the series with Veronica persica [3], the “R: Veronica persica, herbicidal effect grade” value is 2 (Herbicidal ratio of 20% or higher and lower than 40%). For the same compound, in the series with Lolium multiflorum Lam., the “K: Lolium multiflorum Lam., herbicidal effect (criteria of Test Example 1)” value was 5 (Herbicidal ratio of 90% or more (almost completely withered)). Besides, the “Herbicidal effect grade, C” value with Monochoria vaginalis is 5 (Herbicidal ratio of 90% or more (almost completely withered)). Further, in the series with Digitaria ciliaris, the “F: Digitaria ciliaris” value is 5 (Herbicidal ratio of 90% or more (almost completely withered)). The “R: Veronica persica, herbicidal effect (criteria of Test Example 1)” value in the series with Veronica persica [4] is 4 (Herbicidal ratio of 70% or higher and lower than 90%). Further, the “g: rapeseed, effect on crop” value in the series with rapeseed is on record as 5 (Herbicidal ratio of 90% or more (almost completely withered)). For the same compound, the “I: Avena fatua, herbicidal effect” value with Avena fatua is 5 (Herbicidal ratio of 90% or more (almost completely withered)). Further, the “f: beet, effect on crop” value in the series on beet is 2 (Herbicidal ratio of 20% or higher and lower than 40%). The “c: corn, effect on crop” value in the series with corn is reported as 5 (Herbicidal ratio of 90% or more (almost completely withered)).

Take `CON=C(C)CC1CC(OC(=O)COc2ccccc2)=C(c2c(C)cc(-c3ccc(Cl)cc3)cc2C)C1=O` (mixture of isomers) [6-061]: the “Herbicidal effect grade, A: Echinochloa oryzacola Vasing.” value in [1] and in series [2] was 5 (Herbicidal ratio of 90% or more (almost completely withered)) in each case. Moreover, the “R: Veronica persica, herbicidal effect grade” value in the series on Veronica persica [3] is 4 (Herbicidal ratio of 70% or higher and lower than 90%). In the series on Lolium multiflorum Lam., the “K: Lolium multiflorum Lam., herbicidal effect (criteria of Test Example 1)” value is 5 (Herbicidal ratio of 90% or more (almost completely withered)). Besides, in the series with Monochoria vaginalis, the “Herbicidal effect grade, C” value is 1 (Herbicidal ratio of 5% or higher and lower than 20%). Besides, the “F: Digitaria ciliaris” value in the series on Digitaria ciliaris is 5 (Herbicidal ratio of 90% or more (almost completely withered)). Further, the “R: Veronica persica, herbicidal effect (criteria of Test Example 1)” value with Veronica persica [4] was 4 (Herbicidal ratio of 70% or higher and lower than 90%). For the same compound, the “g: rapeseed, effect on crop” value in the series on rapeseed is 4 (Herbicidal ratio of 70% or higher and lower than 90%). Also, in the series with Avena fatua, the “I: Avena fatua, herbicidal effect” value is recorded as 5 (Herbicidal ratio of 90% or more (almost completely withered)). The “f: beet, effect on crop” value in the series on beet is 3 (Herbicidal ratio of 40% or higher and lower than 70%). Besides, the “c: corn, effect on crop” value with corn is 5 (Herbicidal ratio of 90% or more (almost completely withered)).

Consider `CON=C(C)CC1CC(OC(=O)N2CCOCC2)=C(c2c(C)cc(-c3ccc(Cl)cc3)cc2C)C1=O` (mixture of isomers) [6-062], for which the “Herbicidal effect grade, A: Echinochloa oryzacola Vasing.” value in series [1] and in series [2] was 5 (Herbicidal ratio of 90% or more (almost completely withered)) in each case. For the same compound, the “R: Veronica persica, herbicidal effect grade” value with Veronica persica [3] was 3 (Herbicidal ratio of 40% or higher and lower than 70%). Further, in the series on Lolium multiflorum Lam., the “K: Lolium multiflorum Lam., herbicidal effect (criteria of Test Example 1)” value is 4 (Herbicidal ratio of 70% or higher and lower than 90%). For the same compound, in the series on Monochoria vaginalis, the “Herbicidal effect grade, C” value was 4 (Herbicidal ratio of 70% or higher and lower than 90%). In the series on Digitaria ciliaris, the “F: Digitaria ciliaris” value was 3 (Herbicidal ratio of 40% or higher and lower than 70%). In addition, in the series on Veronica persica [4], the “R: Veronica persica, herbicidal effect (criteria of Test Example 1)” value is on record as 5 (Herbicidal ratio of 90% or more (almost completely withered)). In addition, the “g: rapeseed, effect on crop” value in the series on rapeseed is 4 (Herbicidal ratio of 70% or higher and lower than 90%). Besides, the “I: Avena fatua, herbicidal effect” value with Avena fatua was 5 (Herbicidal ratio of 90% or more (almost completely withered)). In addition, the “f: beet, effect on crop” value in the series on beet is 0 (Herbicidal ratio of 5% or lower (almost no effect)). The “c: corn, effect on crop” value with corn is on record as 5 (Herbicidal ratio of 90% or more (almost completely withered)).
